From the SangsterLogP compilation

What was measured:
[1] = not given; remark: listed apart in the source
[2] = method code SF-HPLC, from PMID: 3799213; settings: pH 4.0
[3] = method code SF-C, from DOI: 10.1038/194178b0
[4] = not given; remark: listed apart in the source
[5] = not given; remark: listed apart in the source
[6] = method code SF-GLC, from PMID: 6629728; settings: pH 7.4
[7] = from Kurihara, N.; Yamakawa, K.; Fujita, T.; Nakajima, M. (1980). Studies on BHC isomers and related compounds. XXVI. Anaerobic degradation of tetra-, penta- and hexachlorocyclohexane isomers by rat liver …
[8] = method code SF-AS, from DOI: 10.1021/bi00730a008, PMID: 4688860
[9] = method code SF-AS, from DOI: 10.1007/s001289900104, PMID: 8661852
[10] = not given; remark: listed apart in the source
[11] = method code SF-RC, from Audran, M.; Chanal, J.; Berge, G.; Marignan, R. (1983). Binding-structure correlation of bovine serum albumin in a series of cresotinamides. International Journal of Pharmaceutics, 15(3)273-284.; settings: pH 1.0
[12] = method code SF-AS, from DOI: 10.1021/j150653a049
[13] = method code SF, from DOI: 10.1002/1522-2675(20001004)83:10<2836::aid-hlca2836>3.0.co;2-g
[14] = method code SF-C, from DOI: 10.1021/ja00901a033
[15] = method code SF, from DOI: 10.1021/bk-1995-0606.ch005
[16] = method code SF-AS, from DOI: 10.1002/jhet.5570150704
[17] = method code SF-AS, from DOI: 10.1248/cpb.32.2380
[18] = method code SF, from DOI: 10.1021/bk-1995-0606.ch004
[19] = method code SF, from DOI: 10.1016/j.bmcl.2006.04.097, PMID: 16714112
[20] = method code SF-AS, from Korenman, Y.; Danilov, N. (1990). Extraction of alkyl salicylates from aqueous media. Journal of Applied Chemistry of the USSR, 63(1)125-129.
[21] = method code SF-AS, from DOI: 10.1016/0378-5173(90)90042-3
[22] = not given; remark: listed apart in the source
[23] = method code SF-GLC, from DOI: 10.1016/0378-4274(86)90173-6, PMID: 3952768
[24] = from Dutta, H.; Mehta, N.; SenGupta, M.; Pal, D.; Sengupta, C.; De, A. (1988). Dioxanide furoate: studies on its interaction with blood phospholipid in relation to partition coefficients of related drugs. …
[25] = not given; remark: listed apart in the source
[26] = method code SF-AS, from DOI: 10.1016/0005-2728(86)90252-5, PMID: 3015209; settings: pH 7.2
[27] = method code SF-AS, from DOI: 10.1016/j.bioorg.2006.09.003, PMID: 17078995; settings: pH 7.4

Compound CCNc1nc(NCC)nc(SC)n1 has a logP of 2.63.
Work on C1=CCCC=CCCC=CCC1 yielded a logP [1] of 4.12.
In the case of O=C(OCn1c(=O)[nH]cc(F)c1=O)Oc1ccccc1, the logD [2] is reported as 1.11.
With O=C(O)COc1ccc(Cl)cc1 the logP [3] was 2.23.
With COc1cccc(OC)c1C(=O)O the logP [4] was 0.95.
In the case of CCCNC(=O)c1cccnc1, the logP [5] is reported as 0.66.
C1COC2CC2C1 (stereo not drawn) showed a logD [6] of 1.26.
ClC1=C(Cl)C(Cl)C(Cl)C(Cl)C1Cl (stereo not drawn) showed a logP [7] of 4.31.
In the case of O=CNc1ccc(Cl)cc1, the logP [8] is reported as 2.04.
Work on O=[N+]([O-])c1c(Cl)nc(-c2ncncn2)nc1Cl yielded a logP [9] of 2.29.
For OCc1c(F)cccc1F, the logP [10] was 1.12.
In the case of Cc1cc(Br)cc(C(=O)NC2CC2)c1O, the logD [11] is reported as 3.8.
For Cc1ccc(O)c(CO)c1, the logP [12] was 0.97.
With CNCCc1ccccc1 the logD ([13]; pH 12.5) was 1.68.
Work on C1CC2OC2CC1C1CO1 (stereo not drawn) yielded a logD [6] of 0.44.
Compound Clc1cc(-c2ncncn2)c(Cl)nn1 has a logP [9] of 0.84.
O=C(O)COc1ccc(I)cc1 showed a logP [14] of 2.69.
CC(=O)c1ccc(NC=O)cc1 showed a logP [8] of 0.94.
Work on COC(=O)c1ccccc1CS(=O)(=O)Nc1nc(OC)cc(OC)n1 yielded a logD ([15]; pH 5.0) of 2.4.
Work on Cc1noc(-c2ccccn2)n1 yielded a logP [16] of 0.89.
With NS(=O)(=O)c1cc2c(cc1Cl)N=CNS2(=O)=O the logP [17] was -0.1.
O=C(O)COc1cccc(Br)c1 showed a logP [3] of 2.4.
CCOP(=O)(Oc1ccc(C#N)cc1)c1ccccc1 (stereo not drawn) gave a logP [18] of 2.44.
FC(F)(F)c1ccccc1C1=NCCO1 gave a logP [19] of 2.15.
In the case of COC(=O)c1ccccc1O, the logP [20] is reported as 2.08.
For OCc1cccc(O)c1, the logP [12] was 0.5.
With Oc1cc(O)nc(-c2ncncn2)n1 the logP [9] was 1.49.
CCCCOC(=O)c1cc(=O)[nH]c(=O)[nH]1 gave a logP [21] of 1.33.
For CCCCOC(=O)c1ccccc1O, the logP [20] was 4.63.
In the case of CCCC(C)C(=O)O (stereo not drawn), the logP [22] is reported as 1.8.
Nc1ccccc1-c1ccccc1 showed a logD ([13]; pH 5.5) of 2.64.
Work on COP(=S)(OC)Oc1ccc([N+](=O)[O-])cc1 yielded a logP [15] of 2.86.
With COc1ccc(S(N)(=O)=O)cc1 the logP [10] was 0.48.
Work on CCCC(C)CCC(C)=O (stereo not drawn) yielded a logP [23] of 2.92.
Work on CN(C(=O)C(Cl)Cl)c1ccc(O)cc1 yielded a logP [24] of 1.78.
CCCOC(=O)c1cc(=O)[nH]c(=O)[nH]1 gave a logP [21] of 1.1.
Cc1cccc(C)c1C1=NCCO1 gave a logP [19] of 2.21.
ClC1=CC(Cl)C(Cl)C(Cl)C1Cl (stereo not drawn) showed a logP [7] of 3.61.
With c1ccc2c(c1)CCCN2 the logP [25] was 2.29.
Cc1ccc(C)c(NN=C(C#N)C#N)c1 showed a logD [26] of 2.6.
Work on Cc1cc([N+](=O)[O-])ccc1NN=C(C#N)C#N yielded a logD [26] of 1.85.
In the case of COc1cc(N)cc(OC)c1, the logP is reported as 0.99.
ClC1C=CC(Cl)C(Cl)C1Cl (stereo not drawn) showed a logP [7] of 3.08.
Compound CCCCC(CCC)C(=O)O (stereo not drawn) has a logP [22] of 3.01.
CC(=O)Oc1ccc(NC(=O)C(Cl)Cl)cc1 gave a logP [24] of 1.9.
NC(=O)c1cccnc1 showed a logP [5] of -0.34.
For NS(=O)(=O)c1cc2c(cc1C(F)(F)F)NCNS2(=O)=O, the logP [17] was 0.36.
COc1cc(CCOC(C)=O)ccc1O showed a logD [27] of 1.5.
